Laboratory results from patent US12383539B2 (Cavion, Inc., priority 2018, dated 2025).

How the values were obtained:
Format in all cases: in vivo, human
[1] = test system: patients with essential tremor; assay: T-CALM: Kinesia ONE accelerometry score
Description: Kinesia One platform is deployed in T-CALM as a digital marker of tremor severity. Kinesia One is FDA cleared for monitoring Parkinson's motor symptom severity with only limited data on assessment of tremor in ET patients. The algorithmically derived score was developed primarily in Parkinson's disease algorithms and has limited validation in ET (see, e.g., Hoffman et al., 2011 Conf Proc IEEE Eng Med Biol Soc. 2011:4378-81). The Kinesia One device is placed on the index finger of each ET patient and worn in the clinic after completion of the TETRAS Performance subscale. Four tasks are performed by the patient on the left and right sides to assess resting, postural, kinetic and lateral wing beating tremor. The Kinesia One score change in score from baseline to day 28 is evaluated as a secondary efficacy endpoint. The Kinesia One data is also utilized for exploratory analysis of efficacy on the change from baseline to day 15 for accelerometry score and for change from baseline on amplitude measures for days 15 and 28. Consistent finger sensor placement and consistent task execution are critical factors for valid Kinesia One scores.
Both sets of scores were statistically analyzed.

[2] = test system: patients with essential tremor; assay: T-CALM: TETRAS total score
Description: The Total TETRAS score was defined as the sum of the TETRAS performance subscale total score and the TETRAS ADL subscale score. TETRAS TOTAL score combines both patient reported outcome and objective measurement of tremor amplitude in a single score. Analyses of the TETRAS-ADL was conducted using the same type of ANCOVA model as described for the TETRAS-PS, using two-sided tests at the alpha=0.05 level of significance (FIG. 3 and Table 3).

[3] = test system: patients with essential tremor; assay: T-CALM: ECG, vital signs, laboratory and examination safety assessments
Description: Electrocardiogram results were calculated as the average of the triplicate records at each time point. Baseline was defined as the mean of the triplicate values obtained pre-dose at Day 1. If this value was not available, the mean of the triplicate records obtained at screening were used.
Safety procedures involved collection of all TEAEs (treatment-emergent adverse events) coded into the Medical Dictionary for Regulatory Activities (MedDRA) version 20. Adverse events were classified by maximum severity, drug-related adverse events, serious adverse events, and adverse events leading to patient discontinuation.

[4] = test system: patients with essential tremor; assay: T-CALM: Patient Global Impression of Change (PGIC)
Description: Treatment success as measured by PGIC was summarized using descriptive statistics.
The Patient Global Impression of Change (PGIC) will quantify a patient's impression of improvement or decline over time with respect to ET treatment (see, e.g., Guy, Assessment Manual for Psychopharmacology. Rockville, MD: Department of Health, Education, and Welfare Public Health Service Alcohol, Drug Abuse, and Mental Health Administration, 1976). The patient will use the PGIC scale to assess current health status versus initiation of treatment and calculate the difference.

SMILES: CC(C)c1ccc(CC(=O)N[C@H](C)c2ccc(OCC(F)(F)F)cn2)cc1 [CX-8998]
- Kinesia ONE total score, Median ([1]; Day 15): 7.9
- Kinesia ONE total score, change from baseline, Median ([1]; Day 15): −1.1
- Kinesia ONE score vs placebo ([1]; Day 15 and Day 28): did not show a significant difference
- Kinesia ONE total score, Median ([1]; Day 28): 7.8
- Kinesia ONE total score, change from baseline, Median ([1]; Day 28): −0.7
- responders: improvement of at least 5 points by TETRAS Total score, % ([2]; Day 15): (56.4%)
- responders: improvement of at least 5 points by TETRAS Total score, number ([2]; Day 15, N 39): 22
- TETRAS Total change from baseline 0 change: subjects, number (%) ([2]; Day 15, N = 39): 1 (2.6%)
- TETRAS Total change from baseline >0 to 1 point improvement: subjects, number (%) ([2]; Day 15, N = 39): 2 (5.1%)
- TETRAS Total change from baseline >0 to 1 point worsening: subjects, number (%) ([2]; Day 15, N = 39): 2 (5.1%)
- TETRAS Total change from baseline >1 to 2.5 point improvement: subjects, number (%) ([2]; Day 15, N = 39): 2 (5.1%)
- TETRAS Total change from baseline >1 to 2.5 point worsening: subjects, number (%) ([2]; Day 15, N = 39): 1 (2.6%)
- TETRAS Total change from baseline >2.5 to 5 point improvement: subjects, number (%) ([2]; Day 15, N = 39): 7 (17.9%)
- TETRAS Total change from baseline >2.5 to 5 point worsening: subjects, number (%) ([2]; Day 15, N = 39): 4 (10.3%)
- TETRAS Total change from baseline >5 to 10 point improvement: subjects, number (%) ([2]; Day 15, N = 39): 6 (15.4%)
- TETRAS Total change from baseline >5 to 10 point worsening: subjects, number (%) ([2]; Day 15, N = 39): 0
- TETRAS Total change from baseline >10 to 20 point improvement: subjects, number (%) ([2]; Day 15, N = 39): 12 (30.8%)
- TETRAS Total change from baseline >20 point improvement: subjects, number (%) ([2]; Day 15, N = 39): 2 (5.1%)
- TETRAS Total change from baseline >point worsening: subjects, number (%) ([2]; Day 15, N = 39): 0
- total TETRAS score with TETRAS-PS rated by independent video raters, vs placebo ([2]; Day 15 and Day 28): trended toward improvement for the CX-8998 group but was not statistically significant
- responders: improvement of at least 5 points by TETRAS Total score, % ([2]; Day 28): (56.8%)
- responders: improvement of at least 5 points by TETRAS Total score, number ([2]; Day 28, N 37): 21
- TETRAS Total change from baseline 0 change: subjects, number (%) ([2]; Day 28, N = 37): 0
- TETRAS Total change from baseline >0 to 1 point improvement: subjects, number (%) ([2]; Day 28, N = 37): 2 (5.4%)
- TETRAS Total change from baseline >0 to 1 point worsening: subjects, number (%) ([2]; Day 28, N = 37): 4 (10.8%)
- TETRAS Total change from baseline >1 to 2.5 point improvement: subjects, number (%) ([2]; Day 28, N = 37): 2 (5.4%)
- TETRAS Total change from baseline >1 to 2.5 point worsening: subjects, number (%) ([2]; Day 28, N = 37): 2 (5.4%)
- TETRAS Total change from baseline >2.5 to 5 point improvement: subjects, number (%) ([2]; Day 28, N = 37): 5 (13.5%)
- TETRAS Total change from baseline >2.5 to 5 point worsening: subjects, number (%) ([2]; Day 28, N = 37): 1 (2.7%)
- TETRAS Total change from baseline >5 to 10 point improvement: subjects, number (%) ([2]; Day 28, N = 37): 7 (18.9%)
- TETRAS Total change from baseline >5 to 10 point worsening: subjects, number (%) ([2]; Day 28, N = 37): 0
- TETRAS Total change from baseline >10 point worsening: subjects, number (%) ([2]; Day 28, N = 37): 0
- TETRAS Total change from baseline >10 to 20 point improvement: subjects, number (%) ([2]; Day 28, N = 37): 8 (21.6%)
- TETRAS Total change from baseline >20 point improvement: subjects, number (%) ([2]; Day 28, N = 37): 5 (13.5%)
- integrated analysis of electrocardiogram outliers ([3]; T-CALM, efficacious doses): no CVS safety signals
- clinical laboratory parameters vs placebo ([3]; in vivo): No clinically meaningful differences
- vital signs, ECG, neurological and physical examinations ([3]; in vivo): No clinically significant abnormalities
- PGIC score 0-no change: subjects, number (%) ([4]; Day 15): 11 (28%)
- PGIC score 1-minimally improved: subjects, number (%) ([4]; Day 15): 17 (44%)
- PGIC score 2-much improved: subjects, number (%) ([4]; Day 15): 8 (21%)
- PGIC score 3-very much improved: subjects, number (%) ([4]; Day 15): 1 (3%)
- PGIC score (rescaled −3 to 3), Mean (SD) ([4]; Day 15): 1 (1.0)
- PGIC score (rescaled −3 to 3), Median (minimum, maximum) ([4]; Day 15): 1 (−2, 3)
- PGIC score −1-minimally worse: subjects, number (%) ([4]; Day 15): 1 (3%)
- PGIC score −2-much worse: subjects, number (%) ([4]; Day 15): 1 (3%)
- PGIC score −3-very much worse: subjects, number (%) ([4]; Day 15): 0
- PGIC category 0 No change, number (%) of patients ([4]; Day 15, N = 39): 11 (28%)
- PGIC category 1 Minimally improved, number (%) of patients ([4]; Day 15, N = 39): 17 (44%)
- PGIC category 2 Much improved, number (%) of patients ([4]; Day 15, N = 39): 8 (21%)
- PGIC category 3 Very much improved, number (%) of patients ([4]; Day 15, N = 39): 1 (3%)
- PGIC category −1 Minimally worse, number (%) of patients ([4]; Day 15, N = 39): 1 (3%)
- PGIC category −2 Much worse, number (%) of patients ([4]; Day 15, N = 39): 1 (3%)
- PGIC category −3 Very much worse, number (%) of patients ([4]; Day 15, N = 39): 0
- PGIC: No Change, number of subjects ([4]; Day 15, total 39): 11
- PGIC: Worsened, number of subjects ([4]; Day 15, total 39): 2
- PGIC score, LS mean (SE) ([4]; Day 15, ANCOVA): 0.9 (0.17)
- PGIC score, LS mean difference from placebo (95% CI) ([4]; Day 15, ANCOVA): 0.7 (0.2, 1.1)
